Non-standard residues stand in square brackets, D forms with d. Residues, ends and D or L forms follow the SMILES beside them. Ahp = NCCCCCCC(=O)O
What was measured:
[1] = test system: human A549 cells; experiment: Microscopic observation of A549 cells after addition of compounds; type: cell-based; conditions: microscopic observation after addition of compound
Procedure: (§1) The electrophysiological experiments were performed on human A549 cells (ATTC No. CCL-185). A549 cells are human lung epithelial cells which are involved in the diffusion of water and electrolytes in the lungs. The cells were suspended in RPMI-1640 medium (Sigma-Aldrich, product number R6504) with 1% penicillin/streptomycin and 10% fetal calf serum, transferred into plastic cell culture vessels and cultivated in an incubator with 95% air and 5% CO2 at 37° C. The medium was changed 2 to 3 times per week. The cells double within approx. 22 hours, and a cell concentration of more than 7×10^4 cells per cm^2 was not exceeded.
The cells were microscopically observed.

[2] = molecular target: T1, epithelial sodium channels (Homo sapiens, UniProt P37088+P51168+P51170); experiment: Patch-clamp measurement, whole cell configuration, amiloride-sensitive sodium current in A549 cells; type: cell-based; conditions: for Activity in comparison to a peptide SEQ ID NO: 10 CGQRETPEGAEKPWYC ("TIP-Peptid", Lucas et al. Science 1994 also WO00/09149): whole cell patch-clamp, A549 cells, amiloride-sensitive sodium current, relative to TIP peptide SEQ ID NO: 10
T1 construct: endogenous in cells; host or cells: A549 human lung epithelial cells (ATTC No. CCL-185)
Excerpt: The detection of a vectorial regulation of ion channels by a compound may be effected according to a method common in laboratories, for example, according to Clunes M. T. et al., J. Physiolo. (2004) 557.3: 809-819), via patch-clamp experiments. For patch-clamp examinations of ion channels, a glass cannula is stretched thin and filled with a neutral buffer solution. The glass cannula (patch-clamp pipette) is carefully pressed onto an intact epithelial cell. A piece of membrane is located below the pipette. An electrical resistance is thereby produced between the interior of the pipette and the external solution. An electrode attached to a sensitive amplifier dips into the pipette solution.
A regulation of the vectorial epithelial ion channels is detected via a change in the current intensity with a constant voltage.
as §1
For the patch-clamp experiments, the cells were transferred onto small glass plates.
Macroscopic currents were discharged from A549 cells in the “whole cell” configuration of the “patch-clamp” technique (Hamill et al, Pflugers Arch. 1981, 391(2):85-100, 1981). For the current dissipations in the “whole cell” configuration, the following bath and electrode solutions were used:
Bath solution: 135 mM sodium methanesulfonate, 10 mM NaCl, 2.7 mM KCl, 1.8 mM CaCl2, 2 mM MgCl2, 5.5 mM glucose, and 10 mM HEPES, pH 7.4.
Electrode solution: 120 mM potassium methanesulfonate, 15 mM KCl, 6 mM NaCl, 1 mM Mg2ATP, 2 mM Na3ATP, 10 mM HEPES, and 0.5 mM EGTA (pH 7.2).
Cover slips with the cells cultivated thereon were transferred into a test bath with a capacity of 1 ml, fixed on the microscope table (Axiovert 100, 400-fold magnification), and the cells were superfused with the above-described bath solution. Thereupon, the current was discharged from a suitable cell (which adheres to the cover slip). For this purpose, a microelectrode filled with an electrolyte solution (glass capillary with a defined, heat-polished tip opening of about 1-3 μm, corresponding to a resistance of the electrode tip of […]) was placed on the cell and the membrane was sucked in so that a “Gigaohm seal” was formed between the membrane and the electrode in order to minimize the leakage current. In the “whole cell” configuration, the membrane was penetrated beneath the electrode tip so that the current flowing through all ion channels of the cell could be measured. Upon obtaining a Gigaohm seal, a defined membrane retaining potential was applied via a pre-amplifier (CV-4 Headstage, Axon Instruments) and an amplifier (Axopatch 1 D, Axon Instr.) and the current thereby flowing through the ion channels was measured.
The pulse protocol consisted of a hyperpolarization of the cell membrane to −100 mV for 5 s and a subsequent gradual depolarization to +100 mV in 20 mV steps.
This protocol was performed before (control) and after the addition of ring-shaped organic molecules. The current dissipations thus obtained were stored and analyzed by means of the program PCLAMP 6.0. For this purpose, the current dissipations obtained in the presence of amiloride were subtracted from the currents recorded earlier so that the amiloride-sensitive sodium current through the epithelial sodium channels could be determined.

T1 sequence (P51170 whole entry): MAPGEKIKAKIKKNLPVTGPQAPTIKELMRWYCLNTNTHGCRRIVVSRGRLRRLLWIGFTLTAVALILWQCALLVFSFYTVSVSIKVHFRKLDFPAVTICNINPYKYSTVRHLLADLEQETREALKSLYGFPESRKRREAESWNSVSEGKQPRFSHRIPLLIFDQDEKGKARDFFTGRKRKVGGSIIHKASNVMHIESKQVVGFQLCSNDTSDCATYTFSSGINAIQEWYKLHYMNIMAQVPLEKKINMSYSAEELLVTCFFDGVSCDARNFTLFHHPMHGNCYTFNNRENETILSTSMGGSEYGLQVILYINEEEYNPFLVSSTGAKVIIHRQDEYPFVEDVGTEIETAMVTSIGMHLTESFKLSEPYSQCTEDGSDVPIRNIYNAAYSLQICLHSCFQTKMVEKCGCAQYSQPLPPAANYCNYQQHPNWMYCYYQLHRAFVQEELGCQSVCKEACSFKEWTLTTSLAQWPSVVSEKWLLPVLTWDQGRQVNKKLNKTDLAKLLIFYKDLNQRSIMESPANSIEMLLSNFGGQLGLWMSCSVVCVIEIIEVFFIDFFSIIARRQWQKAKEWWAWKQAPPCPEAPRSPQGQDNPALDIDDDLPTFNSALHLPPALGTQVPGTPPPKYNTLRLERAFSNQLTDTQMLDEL
T1 sequence (P37088 whole entry): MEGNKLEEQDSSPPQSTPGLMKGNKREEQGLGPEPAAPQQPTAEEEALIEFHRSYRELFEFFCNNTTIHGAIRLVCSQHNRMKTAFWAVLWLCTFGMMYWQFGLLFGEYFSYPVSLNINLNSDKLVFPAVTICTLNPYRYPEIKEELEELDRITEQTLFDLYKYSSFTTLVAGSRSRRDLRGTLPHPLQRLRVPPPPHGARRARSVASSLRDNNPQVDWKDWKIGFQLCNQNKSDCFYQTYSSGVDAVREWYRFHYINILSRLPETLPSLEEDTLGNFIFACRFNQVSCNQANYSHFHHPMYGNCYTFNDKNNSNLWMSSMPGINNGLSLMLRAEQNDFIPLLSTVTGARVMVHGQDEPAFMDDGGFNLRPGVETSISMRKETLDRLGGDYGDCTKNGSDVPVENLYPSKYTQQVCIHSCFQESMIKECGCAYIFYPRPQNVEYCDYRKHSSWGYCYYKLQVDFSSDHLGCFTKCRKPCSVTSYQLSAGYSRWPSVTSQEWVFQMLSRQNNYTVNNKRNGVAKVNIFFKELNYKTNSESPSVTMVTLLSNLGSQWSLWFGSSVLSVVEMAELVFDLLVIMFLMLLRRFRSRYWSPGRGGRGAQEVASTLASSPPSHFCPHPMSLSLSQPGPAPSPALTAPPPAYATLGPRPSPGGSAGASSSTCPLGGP
T1 sequence (P51168 whole entry): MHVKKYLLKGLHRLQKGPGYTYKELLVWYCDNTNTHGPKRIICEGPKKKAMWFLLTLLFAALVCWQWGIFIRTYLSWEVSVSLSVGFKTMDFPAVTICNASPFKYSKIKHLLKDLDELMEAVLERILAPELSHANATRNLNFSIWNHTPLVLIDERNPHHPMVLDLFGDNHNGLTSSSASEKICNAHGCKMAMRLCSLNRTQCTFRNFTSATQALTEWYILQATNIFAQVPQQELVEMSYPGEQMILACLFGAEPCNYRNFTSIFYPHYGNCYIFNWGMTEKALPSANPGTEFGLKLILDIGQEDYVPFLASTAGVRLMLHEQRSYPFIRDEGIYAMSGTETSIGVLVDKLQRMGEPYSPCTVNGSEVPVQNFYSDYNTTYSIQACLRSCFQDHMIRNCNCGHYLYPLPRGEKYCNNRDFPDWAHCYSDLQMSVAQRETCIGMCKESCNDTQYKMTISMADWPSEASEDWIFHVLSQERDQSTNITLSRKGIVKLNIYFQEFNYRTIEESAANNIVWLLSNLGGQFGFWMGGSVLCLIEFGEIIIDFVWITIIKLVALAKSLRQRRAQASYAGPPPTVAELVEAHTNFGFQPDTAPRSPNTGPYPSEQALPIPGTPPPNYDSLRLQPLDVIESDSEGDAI

| Molecule | changes in morphology or cell growth [1] | death of cells [1] | Activity in comparison to a peptide SEQ ID NO: 10 CGQRETPEGAEKPWYC ("TIP-Peptid", Lucas et al. Science 1994 also WO00/09149) [2] | activation of the vectorial ionic current compared with known peptides SEQ ID NO: 10, 11 and 12 ([2]; patch-clamp, comparison in words) |
| --- | --- | --- | --- | --- |
| C[C@@H]1NC(=O)CNC(=O)[C@H](CCC(=O)O)NC(=O)[C@@H]2CCCN2C(=O)[C@H]([C@@H](C)O)NC(=O)[C@H](CCC(=O)O)NC(=O)[C@H](CCCNC(=N)N)NC(=O)[C@H](CCC(N)=O)NC(=O)CNC(=O)CCCNC(=O)CNC(=O)[C@H](Cc2ccc(O)cc2)NC(=O)[C@H](Cc2c[nH]c3ccccc23)NC(=O)[C@@H]2CCCN2C(=O)[C@H](CCCCN)NC(=O)[C@H](C)NC(=O)[C@H](CCC(=O)O)NC1=O [SEQ ID NO: 4, [gamma-aminobutyric acid-GQRETPEGAEAKPWYG] (cyclo 1-17)] | did not produce any changes in morphology or cell growth | did not result in the death of cells | – | – |
| C[C@@H]1NC(=O)CNC(=O)[C@H](CCC(=O)O)NC(=O)[C@@H]2CCCN2C(=O)[C@H]([C@@H](C)O)NC(=O)[C@H](CCC(=O)O)NC(=O)[C@H](CCCNC(=N)N)NC(=O)[C@H](CCC(N)=O)NC(=O)CNC(=O)[C@@H](N)CCCCNC(=O)CNC(=O)[C@H](Cc2ccc(O)cc2)NC(=O)[C@H](Cc2c[nH]c3ccccc23)NC(=O)[C@@H]2CCCN2C(=O)[C@H](CCCCN)NC(=O)[C@H](C)NC(=O)[C@H](CCC(=O)O)NC1=O [SEQ ID NO: 1, [KGQRETPEGAEAKPWYG] (cyclo Kepsilon1-G17)] | did not produce any changes in morphology or cell growth | did not result in the death of cells | 150% | – |
| LSPGQRETPEGAEAKPWYE (peptide published in WO 2009/073909) [SEQ ID NO: 12, known peptide from WO2009/073909 (PCT AT2008 448), reference compound] | – | – | 60% | – |
| C[C@@H]1NC(=O)CNC(=O)[C@H](CCC(=O)O)NC(=O)[C@@H]2CCCN2C(=O)[C@H]([C@@H](C)O)NC(=O)[C@H](CCC(=O)O)NC(=O)[C@H](CCCNC(=N)N)NC(=O)[C@H](CCC(N)=O)NC(=O)CNC(=O)CCCNC(=O)C[C@@H](C(=O)O)NC(=O)[C@H](Cc2ccc(O)cc2)NC(=O)[C@H](Cc2c[nH]c3ccccc23)NC(=O)[C@@H]2CCCN2C(=O)[C@H](CCCCN)NC(=O)[C@H](C)NC(=O)[C@H](CCC(=O)O)NC1=O [SEQ ID NO: 5, [gamma-aminobutyric acid-GQRETPEGAEAKPWYD-OH] (cyclo 1-Dγ17)] | did not produce any changes in morphology or cell growth | did not result in the death of cells | 160% | – |
| C[C@@H]1NC(=O)CNC(=O)[C@H](CCC(=O)O)NC(=O)[C@@H]2CCCN2C(=O)[C@H]([C@@H](C)O)NC(=O)[C@H](CCC(=O)O)NC(=O)[C@H](CCCNC(=N)N)NC(=O)[C@H](CCC(N)=O)NC(=O)CNC(=O)CCCCNC(=O)CNC(=O)[C@H](Cc2ccc(O)cc2)NC(=O)[C@H](Cc2c[nH]c3ccccc23)NC(=O)[C@@H]2CCCN2C(=O)[C@H](CCCCN)NC(=O)[C@H](C)NC(=O)[C@H](CCC(=O)O)NC1=O [SEQ ID NO: 3, [5-amino-pentanoic acid-GQRETPEGAEAKPWYG] (cyclo 1-17)] | did not produce any changes in morphology or cell growth | did not result in the death of cells | – | – |
| CGTKPIELGPDEPKAVC (peptide published in EP 2 009 023) [SEQ ID NO: 11, known peptide for controlling fluid content in the alveoli, from EP 2 009 023, reference compound] | – | – | 80% | – |
| C[C@@H]1NC(=O)CNC(=O)[C@H](CCC(=O)O)NC(=O)[C@@H]2CCCN2C(=O)[C@H]([C@@H](C)O)NC(=O)[C@H](CCC(=O)O)NC(=O)[C@H](CCCNC(=N)N)NC(=O)[C@H](CCC(N)=O)NC(=O)CNC(=O)[C@@H](N)CCCNC(=O)CNC(=O)[C@H](Cc2ccc(O)cc2)NC(=O)[C@H](Cc2c[nH]c3ccccc23)NC(=O)[C@@H]2CCCN2C(=O)[C@H](CCCCN)NC(=O)[C@H](C)NC(=O)[C@H](CCC(=O)O)NC1=O [SEQ ID NO: 2, [ornithine-GQRETPEGAEAKPWYG] (cyclo Orn-delta1-G17)] | did not produce any changes in morphology or cell growth | did not result in the death of cells | 115% | – |
| C[C@@H]1NC(=O)CNC(=O)[C@H](CCC(=O)O)NC(=O)[C@@H]2CCCN2C(=O)[C@H]([C@@H](C)O)NC(=O)[C@H](CCC(=O)O)NC(=O)[C@H](CCCNC(=N)N)NC(=O)[C@H](CCC(N)=O)NC(=O)CNC(=O)CCNC(=O)CC[C@@H](C(=O)O)NC(=O)[C@H](Cc2ccc(O)cc2)NC(=O)[C@H](Cc2c[nH]c3ccccc23)NC(=O)[C@@H]2CCCN2C(=O)[C@H](CCCCN)NC(=O)[C@H](C)NC(=O)[C@H](CCC(=O)O)NC1=O [SEQ ID NO: 6, [3-amino-propanoic acid-GQRETPEGAEAKPWYE-OH] (cyclo 1-Eδ17)] | did not produce any changes in morphology or cell growth | did not result in the death of cells | 150% | – |
| [6-amino-hexanoic acid-GQRETPEGAEAKPWYG] (cyclo 1-17) [SEQ ID NO: 8] | did not produce any changes in morphology or cell growth | did not result in the death of cells | 150% | significantly higher activations of the vectorial ionic current |
| C[C@@H]1NC(=O)CNC(=O)[C@H](CCC(=O)O)NC(=O)[C@@H]2CCCN2C(=O)[C@H]([C@@H](C)O)NC(=O)[C@H](CCC(=O)O)NC(=O)[C@H](CCCNC(=N)N)NC(=O)[C@H](CCC(N)=O)NC(=O)CNC(=O)CCCCCCNC(=O)[C@H](Cc2ccc(O)cc2)NC(=O)[C@H](Cc2c[nH]c3ccccc23)NC(=O)[C@@H]2CCCN2C(=O)[C@H](CCCCN)NC(=O)[C@H](C)NC(=O)[C@H](CCC(=O)O)NC1=O [SEQ ID NO: 7, [7-amino-heptanoic acid-GQRETPEGAEAKPWY] (cyclo 1-16)] (cyclo(AEAKPWY[Ahp]GQRETPEG)) | did not produce any changes in morphology or cell growth | did not result in the death of cells | – | – |
